Data as given in patent US20250179059A1 (The Regents of the University of California, priority 2021, published 2025).
Where two headings read alike, the source gives them in different places.

Legend:
[1] = target: T1, human BRD4 bromodomain II (Homo sapiens, UniProt O60885); test: Bromodomain binding assay (AlphaScreen), BRD4 BDII
T1 construct: human BRD4 bromodomain II [based on Genbank NM_058243, residues 349-460]; host or cells: E. coli
How it was run: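 First, His6-tagged BRD4 bromodomain (BDI residues 44-170 or BDII residues 349-460) is incubated with compound for 30 min at room temperature. Next the biotinylated H4 peptide is added for 30 min, then donor and acceptor beads, with 60 min in the dark before AlphaScreen reading and IC50 fitting.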

[2] = tested on: human SKM-1 acute myeloid leukemia cells; test: SKM-1 antiproliferation cell-based assay (ATPlite); conditions: Homo sapiens
How it was run: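 Log-phase cells in RPMI 1640/15% FBS were seeded at 34722 cells/mL and exposed for 4 days to nine-concentration DMSO serial dilutions in triplicate. Viability was read as ATP luminescence (ATPlite 1step), and IC50 values came from variable-slope non-linear regression.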

[3] = AlphaScreen assay, Table C2, read-out: BRD4 BDII IC50
[4] = SKM-1, 96 h, SKM-1 antiproliferation assay, 4 days, Table C2
[5] = BRD4 BDII AlphaScreen assay, read-out: BRD4 BD2 IC50
[6] = SKM-1, SKM-1 antiproliferation assay

## CN1CCN(c2ccc(-c3cccc(-c4cc(N5CCNCC5)c(=O)n(C)c4)c3O)cc2Cl)C1=O [Example 342, 5-(3′-chloro-2-hydroxy-4′-(3-methyl-2-oxoimidazolidin-1-yl)-[1,1′-biphenyl]-3-yl)-1-methyl-3-(piperazin-1-yl)pyridin-2(1H)-one]
[1]; [3]
  IC50: 1 to 10 nM
[2]; [4]
  GI50: 30 to 300 nM

## Cc1cc(-c2ccc(-n3ccn(C)c3=O)c(Cl)c2)c(O)c(-c2cc(N3CCN[C@H](C)C3)c3cc[nH]c3c2)c1 [Example 567]
[1]; [3]
  IC50: 1 to 10 nM
[2]; [4]
  GI50: 0.3 to 30 nM

## CN1CC2(C1)CN(c1cncc(-c3cc(F)cc(-c4ccc(-n5ccn(C)c5=O)c(Cl)c4)c3O)c1)C2 [Example 488, 1-(3-chloro-5′-fluoro-2′-hydroxy-3′-(5-(6-methyl-2,6-diazaspiro[3.3]heptan-2-yl)pyridin-3-yl)-[1,1′-biphenyl]-4-yl)-3-methyl-1H-imidazol-2(3H)-one]
[1]; [3]
  IC50: 1 to 10 nM
[2]; [4]
  GI50: 0.3 to 30 nM

## COc1ncc(-c2cc(F)cc(-c3ccc(-n4cc(C)n(C)c4=O)c(Cl)c3)c2O)cc1N1CCN(C(C)(C)C)CC1 [Example 982, 1-(3′-(5-(4-(tert-butyl)piperazin-1-yl)-6-methoxypyridin-3-yl)-3-chloro-5′-fluoro-2′-hydroxy-[1,1′-biphenyl]-4-yl)-3,4-dimethyl-1H-imidazol-2(3H)-one]
[1]; [5]
  IC50: 1 to 10 nM
[2]; [6]
  GI50: 30 to 300 nM

## Cc1cc(-c2ccc(-n3ccn(C)c3=O)c(Cl)c2)c(O)c(-c2ccc(F)c(N3CCN(C(C)(C)C)CC3)c2)n1 [Example 1000, 1-(4-(2-(3-(4-(tert-butyl)piperazin-1-yl)-4-fluorophenyl)-3-hydroxy-6-methylpyridin-4-yl)-2-chlorophenyl)-3-methyl-1H-imidazol-2(3H)-one]
[1]; [5]
  IC50: 1 to 10 nM
[2]; [6]
  GI50: 0.3 to 30 nM

## Cn1ccn(-c2ccc(-c3cc(F)nc(-c4cccc(N5CCN(C(C)(C)C)CC5)c4)c3O)cc2Cl)c1=O [Example 1029, 1-(4-(2-(3-(4-(tert-Butyl)piperazin-1-yl)phenyl)-6-fluoro-3-hydroxypyridin-4-yl)-2-chlorophenyl)-3-methyl-1H-imidazol-2(3H)-one]
[1]; [5]
  IC50: 0.01 to 1 nM
[2]; [6]
  GI50: 0.3 to 30 nM

## CC(=O)Nc1ccc(-c2cccc(-c3cc(N)nc(N4CCNCC4)c3)c2O)cc1F [Example 348, N-(3′-(2-amino-6-(piperazin-1-yl)pyridin-4-yl)-3-fluoro-2′-hydroxy-[1,1′-biphenyl]-4-yl)acetamide]
[1]; [3]
  IC50: 1 to 10 nM
[2]; [4]
  GI50: 30 to 300 nM

## Cn1ccn(-c2ccc(-c3cc(F)cc(-c4ccnc(N5CCCN(C(C)(C)C)CC5)c4)c3O)cc2Cl)c1=O [Example 840, 1-(3′-(2-(4-(tert-butyl)-1,4-diazepan-1-yl)pyridin-4-yl)-3-chloro-5′-fluoro-2′-hydroxy-[1,1′-biphenyl]-4-yl)-3-methyl-1H-imidazol-2(3H)-one]
[1]; [3]
  IC50: 0.01 to 1 nM
[2]; [4]
  GI50: 0.3 to 30 nM

## Cn1cc(-c2cc(F)cc(-c3ccc(-n4ccn(C)c4=O)c(Cl)c3)c2O)cc(N2CC[C@H](N)C2)c1=O [Example 422, (S)-3-(3-aminopyrrolidin-1-yl)-5-(3′-chloro-5-fluoro-2-hydroxy-4′-(3-methyl-2-oxo-2,3-dihydro-1H-imidazol-1-yl)-[1,1′-biphenyl]-3-yl)-1-methylpyridin-2(1H)-one]
[1]; [3]
  IC50: 0.01 to 1 nM
[2]; [4]
  GI50: 0.3 to 30 nM

## Cc1cc(-c2ccc(-n3ccn(C)c3=O)c(Cl)c2)c(O)c(-c2ccnc(N3CC[C@](C)(O)C3)c2)n1 [Example 995, (S)-1-(2-chloro-4-(3-hydroxy-2′-(3-hydroxy-3-methylpyrrolidin-1-yl)-6-methyl-[2,4′-bipyridin]-4-yl)phenyl)-3-methyl-1H-imidazol-2(3H)-one]
[1]; [5]
  IC50: 1 to 10 nM
[2]; [6]
  GI50: 0.3 to 30 nM

## C[C@@H]1CN(c2cc(-c3cc(F)cc(-c4ccc(-n5ccn(C)c5=O)c(Cl)c4)c3O)cc3[nH]nnc23)CCN1 [Example 536, (R)-1-(3-chloro-5′-fluoro-2′-hydroxy-3′-(4-(3-methylpiperazin-1-yl)-1H-benzo[d][1,2,3]triazol-6-yl)-[1,1′-biphenyl]-4-yl)-3-methyl-1H-imidazol-2(3H)-one]
[1]; [3]
  IC50: 1 to 10 nM
[2]; [4]
  GI50: 0.3 to 30 nM

## CN1CCN(c2ccc(-c3cc(-c4ccccc4)cc(-c4ccnc(N5CCNCC5)c4)c3O)cc2Cl)C1=O [Example 318, 1-(3-chloro-6′-hydroxy-5′-(2-(piperazin-1-yl)pyridin-4-yl)-[1,1′:3′,1″-terphenyl]-4-yl)-3-methylimidazolidin-2-one]
[1]; [3]
  IC50: > 100 nM
[2]; [4]
  GI50: 300 to 3000 nM

## C[C@@H]1CN(c2cc(-c3cc(F)cc(-c4ccc(-n5ccn(C)c5=O)c(Cl)c4)c3O)cn(CCCO)c2=O)CCN1 [Example 630, (R)-5-(3′-chloro-5-fluoro-2-hydroxy-4′-(3-methyl-2-oxo-2,3-dihydro-IH-imidazol-1-yl)-[1,1′-biphenyl]-3-yl)-1-(3-hydroxypropyl)-3-(3-methylpiperazin-1-yl)pyridin-2(1H)-one]
[1]; [3]
  IC50: 0.01 to 1 nM
[2]; [4]
  GI50: 30 to 300 nM

## O=c1occn1-c1ccc(-c2cc(F)cc(-c3ccnc(N4CCNCC4)c3)c2O)cc1Cl [Example 505, 3-(3-chloro-5′-fluoro-2′-hydroxy-3′-(2-(piperazin-1-yl)pyridin-4-yl)-[1,1′-biphenyl]-4-yl)oxazol-2(3H)-one]
[1]; [3]
  IC50: 1 to 10 nM
[2]; [4]
  GI50: 30 to 300 nM

## CC(C)[C@@H]1CN(c2cc(-c3cc(F)cc(-c4ccc(-n5ccn(C)c5=O)c(Cl)c4)c3O)ccn2)CCN1 [Example 667, (R)-1-(3-chloro-5′-fluoro-2′-hydroxy-3′-(2-(3-isopropylpiperazin-1-yl)pyridin-4-yl)-[1,1′-biphenyl]-4-yl)-3-methyl-1H-imidazol-2(3H)-one]
[1]; [3]
  IC50: 0.01 to 1 nM
[2]; [4]
  GI50: 0.3 to 30 nM

## CC(=O)Nc1cc(-c2cc(F)cc(-c3ccc(-n4ccn(C)c4=O)c(Cl)c3)c2O)cc(N2CCNCC2)n1 [Example 442, N-(4-(3′-chloro-5-fluoro-2-hydroxy-4′-(3-methyl-2-oxo-2,3-dihydro-1H-imidazol-1-yl)-[1,1′-biphenyl]-3-yl)-6-(piperazin-1-yl)pyridin-2-yl)acetamide]
[1]; [3]
  IC50: 0.01 to 1 nM
[2]; [4]
  GI50: 0.3 to 30 nM

## Cn1ccn(-c2ccc(-c3cc(F)cc(-c4cncc(N5CC[C@@H](O)[C@H](N)C5)c4)c3O)cc2Cl)c1=O [Example 495, 1-(3′-(5-((3R,4R)-3-amino-4-hydroxypiperidin-1-yl)pyridin-3-yl)-3-chloro-5′-fluoro-2′-hydroxy-[1,1′-biphenyl]-4-yl)-3-methyl-1H-imidazol-2(3H)-one]
[1]; [3]
  IC50: 1 to 10 nM
[2]; [4]
  GI50: 30 to 300 nM

## CC(=O)NC1(C)CCN(c2cc(-c3cc(F)cc(-c4ccc(-n5ccn(C)c5=O)c(Cl)c4)c3O)ccn2)C1 (centres unmarked) [Example 782, N-(1-(4-(3′-chloro-5-fluoro-2-hydroxy-4′-(3-methyl-2-oxo-2,3-dihydro-1H-imidazol-1-yl)-[1,1′-biphenyl]-3-yl)pyridin-2-yl)-3-methylpyrrolidin-3-yl)acetamide]
[1]; [3]
  IC50: 0.01 to 1 nM
[2]; [4]
  GI50: 30 to 300 nM

## Cc1ncc(-c2cc(F)cc(-c3ccc(-n4ccn(C)c4=O)c(Cl)c3)c2O)cc1N1CCCN(C(C)(C)C)CC1 [Example 844, 1-(3′-(5-(4-(tert-butyl)-1,4-diazepan-1-yl)-6-methylpyridin-3-yl)-3-chloro-5′-fluoro-2′-hydroxy-[1,1′-biphenyl]-4-yl)-3-methyl-1H-imidazol-2(3H)-one]
[1]; [3]
  IC50: 1 to 10 nM
[2]; [4]
  GI50: 0.3 to 30 nM

## Cc1cc(-c2ccc(-n3ccn(C)c3=O)c(Cl)c2)c(O)c(-c2cnc(C)c(N3CCC4(CCN4C(C)C)C3)c2)n1 (centres unmarked) [Example 974, 1-(2-chloro-4-(3-hydroxy-5′-(1-isopropyl-1,6-diazaspiro[3.4]octan-6-yl)-6,6′-dimethyl-[2,3′-bipyridin]-4-yl)phenyl)-3-methyl-1H-imidazol-2(3H)-one]
[1]; [5]
  IC50: 0.01 to 1 nM
[2]; [6]
  GI50: 0.3 to 30 nM

## CN[C@H]1CCN(c2cc(-c3cc(F)cc(-c4ccc(-n5ccn(C)c5=O)c(Cl)c4)c3O)cc(NC(C)=O)n2)C1 [Example 519, (S)-N-(4-(3′-chloro-5-fluoro-2-hydroxy-4′-(3-methyl-2-oxo-2,3-dihydro-1H-imidazol-1-yl)-[1,1′-biphenyl]-3-yl)-6-(3-(methylamino)pyrrolidin-1-yl)pyridin-2-yl)acetamide]
[1]; [3]
  IC50: 1 to 10 nM
[2]; [4]
  GI50: 0.3 to 30 nM

## CC1CN(c2cc(-c3cccc(-c4ccc(N5CCCC5=O)c(F)c4)c3O)ccn2)CC(C)N1 (centres unmarked) [Example 266, 1-(3′-(2-(3,5-dimethylpiperazin-1-yl)pyridin-4-yl)-3-fluoro-2′-hydroxy-[1,1′-biphenyl]-4-yl)pyrrolidin-2-one]
[1]; [3]
  IC50: 1 to 10 nM
[2]; [4]
  GI50: 300 to 3000 nM

## Cn1ccn(-c2ccc(-c3ccnc(-c4cccc(N5CCN(C(C)(C)C)CC5)c4)c3O)cc2Cl)c1=O [Example 979, 1-(4-(2-(3-(4-(tert-butyl)piperazin-1-yl)phenyl)-3-hydroxypyridin-4-yl)-2-chlorophenyl)-3-methyl-1H-imidazol-2(3H)-one]
[1]; [5]
  IC50: 1 to 10 nM
[2]; [6]
  GI50: 0.3 to 30 nM

## Cn1ccn(-c2ccc(-c3cc(F)cc(-c4ccnc(N5C[C@@H](O)[C@H](F)C5)c4)c3O)cc2Cl)c1=O [Example 781, 1-(3-chloro-5′-fluoro-3′-(2-((3R,4R)-3-fluoro-4-hydroxypyrrolidin-1-yl)pyridin-4-yl)-2′-hydroxy-[1,1′-biphenyl]-4-yl)-3-methyl-1H-imidazol-2(3H)-one]
[1]; [3]
  IC50: 1 to 10 nM
[2]; [4]
  GI50: 30 to 300 nM

## O=C1CCCN1c1ccc(-c2cccc(-c3ccnc(N4CCNCC4)c3)c2O)cc1Cl [Example 209, 1-(3-chloro-2′-hydroxy-3′-(2-(piperazin-1-yl)pyridin-4-yl)-[1,1′-biphenyl]-4-yl)pyrrolidin-2-one]
[1]; [3]
  IC50: 1 to 10 nM
[2]; [4]
  GI50: 30 to 300 nM
